Measurements taken from US20240287089A1, “Preparation and Uses of 7-Azaindenoisoquinolines” (Purdue Research Foundation, priority 0001, published 2024).

Experiments:
NCI-60 cancer cell lines = assay: NCI-60 cytotoxicity assay, MGM; format: cell-based; details: Homo sapiens; entire panel of NCI-60 cancer cell lines; read-out: MGM (approximate average of GI50 values across the NCI-60 panel)
Method: (§1) The antiproliferative activities of the indenoisquinoline compounds are determined in the NCI-60 cancer cell lines of the National Cancer Institute Developmental Therapeutics Program (NCI-DTP). […] Cancer cells are incubated with the test compounds at five concentrations ranging from 100 μM to 10 nM for 48 h. After the treated cancer cells are stained with sulforhodamine B dye, the percentage growth is plotted as a function of the common logarithm of the tested compound concentration. […] The approximate average of GI50 values across the entire panel of NCI-60 cancer cell lines for each compound is recorded as the MGM value.
(§2) NCI-60 Cytotoxicity Assay. Compounds were submitted to the National Cancer Institute Developmental Therapeutic Program to determine their growth-inhibitory potentials in NCI-60 cell lines. All compounds satisfied the pre-screening proceeded into the 5-dose cell viability assay, in which cells were treated for 48 h at 5 dosages ranging from 100 μM to 10 nM.

SF-539 (CNS) = assay: NCI-60 cytotoxicity assay; format: cell-based; details: Homo sapiens; SF-539 CNS; 48 h, sulforhodamine B; read-out: Comparative Cytotoxicity GI50, CNS SF-539
Method: as §1, §2

UACC-62 (Melanoma) = assay: NCI-60 cytotoxicity assay; format: cell-based, human; details: Homo sapiens; UACC-62 melanoma; 48 h, sulforhodamine B; read-out: Comparative Cytotoxicity GI50, Melanoma UACC-62
Method: as §1, §2

HOP-62 (Lung) = assay: NCI-60 cytotoxicity assay; format: cell-based, human; details: Homo sapiens; HOP-62 lung; 48 h, sulforhodamine B; read-out: Comparative Cytotoxicity GI50, Lung HOP-62
Method: as §1, §2

OVCAR-3 (Ovarian) = assay: NCI-60 cytotoxicity assay; format: cell-based, human; details: Homo sapiens; OVCAR-3 ovarian; 48 h, sulforhodamine B; read-out: Comparative Cytotoxicity GI50, Ovarian OVCAR-3
Method: as §1, §2

SN12C (Renal) = assay: NCI-60 cytotoxicity assay; format: cell-based, human; details: Homo sapiens; SN12C renal; 48 h, sulforhodamine B; read-out: Comparative Cytotoxicity GI50, Renal SN12C
Method: as §1, §2

MCF7 (Breast) = assay: NCI-60 cytotoxicity assay; format: cell-based, human; details: Homo sapiens; MCF7 breast; 48 h, sulforhodamine B; read-out: Comparative Cytotoxicity GI50, Breast MCE7
Method: as §1, §2

DU-145 (Prostate) = assay: NCI-60 cytotoxicity assay; format: cell-based, human; details: Homo sapiens; DU-145 prostate; 48 h, sulforhodamine B; read-out: Comparative Cytotoxicity GI50, Prostate DU-145
Method: as §1, §2

HCT-116 (Colon) = assay: NCI-60 cytotoxicity assay; format: cell-based, human; details: Homo sapiens; HCT-116 colon; 48 h, sulforhodamine B; read-out: Comparative Cytotoxicity GI50, Colon HCT-116
Method: as §1, §2

Caco-2 cells = assay: Caco-2 permeability; format: in vitro ADME; details: for Efflux Ratio / Recovery (%)AP-BL / Recovery (%)BL-AP: Caco-2; for Papp (A→B) / Papp (B→A): Caco-2, 5 μM, 2 h
Method: Caco-2 Permeability Studies. The Caco-2 plate was removed from the incubator and washed twice with pre-warmed HBSS (10 mM HEPES, pH 7.4), and then incubated at 37° C. for 30 min. The stock solutions of controls compounds were diluted in DMSO to get 1 mM solutions and then diluted with HBSS (10 mM HEPES, pH 7.4) to get 5 μM working solutions. The stock solutions of the test compounds were diluted in DMSO to get 1 mM solutions and then diluted with HBSS (10 mM HEPES, pH 7.4) to get 5 μM working solutions. The final concentration of DMSO in the incubation system was 0.5%. To determine the rate of drug transport in the apical to basolateral direction, 75 μL of 5 μM working solutions of test compounds was added to the Transwell insert (apical compartment) and the wells in the receiver plate (basolateral compartment) were filled with 235 μL of HBSS (10 mM HEPES, pH 7.4). To determine the rate of drug transport in the basolateral to apical direction, 235 μL of 5 μM working solutions of test compounds were to the receiver plate wells (basolateral compartment) and then the Transwell inserts (apical compartment) were filled with 75 μL of HBSS (10 mM HEPES, pH 7.4). Time 0 samples were prepared by transferring 50 μL of 5 μM working solution to wells of the 96-deepwell plate, followed by the addition of 200 μL cold methanol containing appropriate internal standards (IS). The plates were incubated at 37° C. for 2 h. […] An aliquot of 100 μL of the supernatant was mixed with an appropriate volume of ultra-pure water before LC-MS/MS analysis. To determine the Lucifer Yellow leakage after 2 h transport period, stock solution of Lucifer yellow was prepared in ultra-pure water and diluted with HBSS (10 mM HEPES, pH 7.4) to reach the final concentration of 100 μM and then 100 μL of the Lucifer yellow solution was added to each Transwell insert (apical compartment), followed by filling the wells in the receiver plate (basolateral compartment) with 300 μL of HBSS (10 mM HEPES, pH 7.4). The plates were incubated at 37° C. for 30 minutes. Samples (80 μL) were removed directly from the apical and basolateral wells (using the basolateral access holes) and transferred to wells of new 96 wells plates.

[1] = Brain penetration and plasma/brain pharmacokinetics in combination with Temodar or Lynparza
Method: A similar analysis was performed with LMP744 and LMP400 in combination with Temodar and Lynparza.

[2] = Lynparza 100 mg/kg PO + LMP400 10 mg/kg IV, 0.5 h
[3] = Lynparza 100 mg/kg PO + LMP400 10 mg/kg IV, 1 h
[4] = Lynparza 100 mg/kg PO + LMP400 10 mg/kg IV, 2 h
[5] = Lynparza 100 mg/kg PO + LMP400 10 mg/kg IV, 4 h
[6] = Lynparza 100 mg/kg PO + LMP400 10 mg/kg IV, 8 h
[7] = Lynparza 100 mg/kg PO + LMP400 10 mg/kg IV, 24 h
[8] = Lynparza 100 mg/kg PO + LMP744 10 mg/kg IV, 0.25 h
[9] = Lynparza 100 mg/kg PO + LMP744 10 mg/kg IV, 0.5 h
[10] = Lynparza 100 mg/kg PO + LMP744 10 mg/kg IV, 1 h
[11] = Lynparza 100 mg/kg PO + LMP744 10 mg/kg IV, 2 h
[12] = Lynparza 100 mg/kg PO + LMP744 10 mg/kg IV, 4 h
[13] = Lynparza 100 mg/kg PO + LMP744 10 mg/kg IV, 8 h
[14] = Lynparza 100 mg/kg PO + LMP744 10 mg/kg IV, 24 h

COc1cc2c3c(n(CCCNC4CCC4)c(=O)c2cc1OC)-c1cc2c(cc1C3=O)OCO2 [A2]
GI50 (NCI-60 cancer cell lines): 870 nM | GI50 (SF-539 (CNS)): 1050 nM | GI50 (UACC-62 (Melanoma)): 1400 nM | GI50 (HOP-62 (Lung)): 220 nM | GI50 (OVCAR-3 (Ovarian)): 1380 nM | GI50 (SN12C (Renal)): 1440 nM | GI50 (MCF7 (Breast)): 57 nM | GI50 (DU-145 (Prostate)): 790 nM | GI50 (HCT-116 (Colon)): 900 nM

COc1cc2nc(N3CCN(C(=O)c4ccco4)CC3)nc(N)c2cc1OC [Prazosin]
Efflux Ratio (Caco-2 cells): 3.39 | Recovery (%)AP-BL (Caco-2 cells): 79.64% | Recovery (%)BL-AP (Caco-2 cells): 94.99% | Papp (A→B) (Caco-2 cells): 9.28 10^−6, cm/s | Papp (B→A) (Caco-2 cells): 31.47 10^−6, cm/s

COc1cc2c3c(n(CCCN4CCC[C@H]4C(N)=O)c(=O)c2cc1OC)-c1cc2c(cc1C3=O)OCO2 [A5]
GI50 (NCI-60 cancer cell lines): 125 nM | GI50 (SF-539 (CNS)): 30 nM | GI50 (UACC-62 (Melanoma)): 21 nM | GI50 (HOP-62 (Lung)): 31 nM | GI50 (OVCAR-3 (Ovarian)): 160 nM | GI50 (SN12C (Renal)): 42 nM | GI50 (MCF7 (Breast)): 10 nM | GI50 (DU-145 (Prostate)): 38 nM | GI50 (HCT-116 (Colon)): 35 nM

CC(C)NCC(O)COc1cccc2ccccc12 (stereo not drawn) [Propranolol]
Efflux Ratio (Caco-2 cells): 0.70 | Recovery (%)AP-BL (Caco-2 cells): 80.74% | Recovery (%)BL-AP (Caco-2 cells): 92.73% | Papp (A→B) (Caco-2 cells): 25.34 10^−6, cm/s | Papp (B→A) (Caco-2 cells): 17.63 10^−6, cm/s

O=C(c1cc(Cc2n[nH]c(=O)c3ccccc23)ccc1F)N1CCN(C(=O)C2CC2)CC1 [Lynparza]
Brain Conc ([1]; Lynparza 100 mg/kg PO + LMP400 10 mg/kg IV, 0.25 h): 13.1 ± 6.99 nM | Brain Conc [1, 2]: 33.36 ± 18.87 nM | Plasma Conc [1, 2]: 1384 ± 929 nM | Brain Conc [1, 3]: 50.03 ± 9.79 nM | Plasma Conc [1, 3]: 2644 ± 762 nM | Brain Conc [1, 4]: 30.44 ± 15.89 nM | Plasma Conc [1, 4]: 1637 ± 1051 nM | Brain Conc [1, 5]: 18.39 ± 8.59 nM | Plasma Conc [1, 5]: 755 ± 460 nM | Brain Conc [1, 6]: BLOQ | Plasma Conc [1, 6]: 166 ± 208 nM | Brain Conc [1, 7]: BLOQ | Plasma Conc [1, 7]: BLOQ | Brain Conc [1, 8]: BLOQ | Plasma Conc [1, 8]: 345 ± 101 nM | Brain Conc [1, 9]: 12.1 ± 0.53 nM | Brain/Plasma Conc Ratio [1, 9]: 0.02 | Plasma Conc [1, 9]: 555 ± 93.4 nM | Brain Conc [1, 10]: 14.10 ± 7.30 nM | Brain/Plasma Conc Ratio [1, 10]: 0.01 | Plasma Conc [1, 10]: 961 ± 189 nM | Brain Conc [1, 11]: 44.9 ± 20.08 nM | Plasma Conc [1, 11]: 1610 ± 968 nM | Brain Conc [1, 12]: 25.4 ± 6.52 nM | Plasma Conc [1, 12]: 1110 ± 250 nM | Brain Conc [1, 13]: BLOQ | Plasma Conc [1, 13]: 314 ± 185 nM | Brain Conc [1, 14]: BLOQ | Plasma Conc [1, 14]: BLOQ | concentration at 0.25 h ([1]; mouse, plasma, oral, Plasma Conc, Lynparza 100 mg/kg PO + LMP400 10 mg/kg IV, 0.25 h): 506 ± 423 nM

C[C@H]1O[C@@H](O[C@H]2[C@@H](O)C[C@H](O[C@H]3[C@@H](O)C[C@H](O[C@H]4CC[C@@]5(C)[C@H](CC[C@@H]6[C@@H]5C[C@@H](O)[C@]5(C)[C@@H](C7=CC(=O)OC7)CC[C@]65O)C4)O[C@@H]3C)O[C@@H]2C)C[C@H](O)[C@@H]1O [Digoxin]
Efflux Ratio (Caco-2 cells): 25.25 | Recovery (%)AP-BL (Caco-2 cells): 88.64% | Recovery (%)BL-AP (Caco-2 cells): 106.70% | Papp (A→B) (Caco-2 cells): 0.74 10^−6, cm/s | Papp (B→A) (Caco-2 cells): 18.71 10^−6, cm/s
